Data reported in patent US9115092B2, “Substituted quinazoline and pyrido-pyrimidine derivatives” (Asana Biosciences, LLC, priority 2010, dated 2015).

Assays:
[1] = biological target: T1, PI3Kα (wild-type), P110/P85α (Homo sapiens, UniProt P42336); test: PI3 Kinase TR-FRET assay, PI3Kα (wild-type); assay type: biochemical
T1 construct: made in house; host or cells: SF9 insect cells
Summary of the method: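 TR-FRET read-out of PIP3 formation via biotin-PIP3 displacement (665/615 nm ratio) gave IC50 curves. Enzyme: 5 ng wild-type P110/P85α from Sf9 cells, 60 min RT with compound and PIP2 (MgCl2 40 mM, DTT 5 mM), then 30 min RT kinase reaction at 10 μM ATP and 10 μM PIP2.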

PC3 cells = test: XTT assay for cell viability, PC3 cells; assay type: cell-based, human; settings: Homo sapiens, PC-3, cell viability
Method: Using a commercial kit from Sigma Aldrich (Catalog #X34251) and following its protocol, PC3 cells in the log phase of growth were employed and seeded at an optimal density of 1000 cell/well on to 96 well plates and incubated for 24 h followed by the addition of compounds of formula (I) in serial dilutions. Compound dilutions were made in DMSO. The cells were incubated with the compounds of formula (I) for 96 h and XTT tetrazolium dye (Sigma, USA) was subsequently added and incubated at 37° C. After the color formation, absorbance was measured at 465 nm in a Spectramax® Gemini spectrophotometer. EC50 values were calculated using a sigmoidal dose response curve fit in GraphPad Prism® v5 software. The tested compounds of formula (I) which caused inhibition of PC3 cell proliferation as determined by this assay protocol are shown in Table 2.

mTOR kinase = biological target: T2, mTOR kinase (Homo sapiens, UniProt P42345); test: mTOR kinase TR-FRET assay; assay type: biochemical; settings: read-out: mTO R
T2 construct: purchased Millipore, USA
Summary of the method: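 TR-FRET read-out (340 nm excitation, 615/665 nm emission) of Thr389 phosphorylation of a ULight-labeled p70 S6K peptide (50 nM) by mTOR, 20 μM ATP, 60 min room temperature after 60 min compound preincubation. Buffer HEPES pH 7.5 with MnCl2, EGTA; IC50 by sigmoidal dose-response.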

T1 sequence (P42336 whole entry): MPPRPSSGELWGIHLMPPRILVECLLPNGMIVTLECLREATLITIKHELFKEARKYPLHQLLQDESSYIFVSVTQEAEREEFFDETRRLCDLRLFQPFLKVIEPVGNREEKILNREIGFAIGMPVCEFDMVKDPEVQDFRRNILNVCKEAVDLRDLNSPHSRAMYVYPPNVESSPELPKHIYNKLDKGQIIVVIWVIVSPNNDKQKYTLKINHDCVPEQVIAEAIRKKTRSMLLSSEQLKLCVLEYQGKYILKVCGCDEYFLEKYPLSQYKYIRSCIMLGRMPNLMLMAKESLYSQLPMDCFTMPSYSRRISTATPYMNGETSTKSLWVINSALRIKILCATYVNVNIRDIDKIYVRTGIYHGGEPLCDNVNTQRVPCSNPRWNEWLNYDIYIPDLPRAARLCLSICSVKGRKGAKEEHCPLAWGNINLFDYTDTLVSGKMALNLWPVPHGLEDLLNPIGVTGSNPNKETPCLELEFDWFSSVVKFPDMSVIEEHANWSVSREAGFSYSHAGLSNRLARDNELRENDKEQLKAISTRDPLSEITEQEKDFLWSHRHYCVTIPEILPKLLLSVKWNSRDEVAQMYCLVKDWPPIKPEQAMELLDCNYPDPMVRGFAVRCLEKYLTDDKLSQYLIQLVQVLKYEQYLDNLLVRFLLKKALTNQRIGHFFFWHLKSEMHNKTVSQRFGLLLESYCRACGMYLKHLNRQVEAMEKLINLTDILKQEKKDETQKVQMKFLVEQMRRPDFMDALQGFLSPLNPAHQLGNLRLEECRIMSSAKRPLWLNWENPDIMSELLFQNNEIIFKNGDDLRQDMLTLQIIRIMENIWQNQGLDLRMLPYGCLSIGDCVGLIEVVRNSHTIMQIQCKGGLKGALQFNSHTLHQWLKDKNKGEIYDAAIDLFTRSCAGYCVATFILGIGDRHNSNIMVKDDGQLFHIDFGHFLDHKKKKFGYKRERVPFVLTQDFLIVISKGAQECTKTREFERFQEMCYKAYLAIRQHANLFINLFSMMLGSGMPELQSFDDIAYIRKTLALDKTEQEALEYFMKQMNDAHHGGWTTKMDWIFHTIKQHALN
T1 sequence (P27986 whole entry partner): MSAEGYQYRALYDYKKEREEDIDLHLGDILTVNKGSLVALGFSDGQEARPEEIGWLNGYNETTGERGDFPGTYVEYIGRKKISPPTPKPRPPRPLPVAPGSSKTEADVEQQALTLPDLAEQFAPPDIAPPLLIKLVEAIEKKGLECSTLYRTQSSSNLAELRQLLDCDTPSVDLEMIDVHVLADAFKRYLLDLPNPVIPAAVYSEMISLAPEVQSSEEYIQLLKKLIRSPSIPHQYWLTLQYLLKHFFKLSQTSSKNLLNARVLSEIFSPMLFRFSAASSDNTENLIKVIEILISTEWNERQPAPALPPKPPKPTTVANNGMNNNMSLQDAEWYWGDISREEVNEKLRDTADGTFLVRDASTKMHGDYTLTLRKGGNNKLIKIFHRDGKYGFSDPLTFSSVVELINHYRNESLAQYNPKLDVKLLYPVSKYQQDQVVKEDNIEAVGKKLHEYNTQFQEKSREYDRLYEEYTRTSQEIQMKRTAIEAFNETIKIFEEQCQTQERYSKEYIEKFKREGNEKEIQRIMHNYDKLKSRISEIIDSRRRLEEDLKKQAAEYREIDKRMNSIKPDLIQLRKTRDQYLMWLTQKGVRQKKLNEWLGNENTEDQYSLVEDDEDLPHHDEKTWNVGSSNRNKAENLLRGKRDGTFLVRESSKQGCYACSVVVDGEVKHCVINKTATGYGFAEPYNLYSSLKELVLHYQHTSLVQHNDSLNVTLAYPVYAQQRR

Row | IC50 [1] [nM] | IC50 (PC3 cells) [nM] | IC50 (mTOR kinase) [nM] | SMILES
1 | 50 to 200 | < 100 | < 50 | CN(C)C(=O)c1ccc(NC(=O)Nc2ccc(-c3nc(N4CCOCC4)c4cccc(-c5cccc(O)c5)c4n3)cc2)cc1 [Example 5, 4-(3-{4-[8-(3-Hydroxy-phenyl)-4-morpholin-4-yl-quinazolin-2-yl]-phenyl}-ureido)-N,N-dimethyl-benzamide]
2 | 50 to 200 | 100 to 500 | < 50 | CN(C)C(=O)c1ccc(NC(=O)Nc2ccc(-c3nc(N4CCOCC4)c4cccc(-c5ccc(F)nc5)c4n3)cc2)cc1 [Example 6, 4-(3-{4-[8-(6-Fluoro-pyridin-3-yl)-4-morpholin-4-yl-quinazolin-2-yl]-phenyl}-ureido)-N,N-dimethyl-benzamide]
3 | 50 to 200 |  | 50 to 200 | COc1ncccc1-c1ccc2c(N3CCOCC3)nc(-c3ccc(NC(=O)Nc4ccc(C(=O)N(C)C)cc4)cc3F)nc2c1 [Example 270, 4-(3-(3-fluoro-4-(7-(2-methoxypyridin-3-yl)-4-morpholino-quinazolin-2-yl)phenyl)ureido)-N,N-dimethyl-benzamide]
4 | < 50 |  | < 50 | Cc1ccc(-c2ccc3c(N4CCOCC4)nc(-c4ccc(NC(=O)Nc5ccc(C(=O)N(C)C)cc5)cc4F)nc3c2)cn1 [Example 271, 4-(3-(3-fluoro-4-(7-(6-methylpyridin-3-yl)-4-morpholino-quinazolin-2-yl)phenyl)ureido)-N,N-dimethyl-benzamide]
5 | < 50 |  | 50 to 200 | Cc1ncccc1-c1ccc2c(N3CCOCC3)nc(-c3ccc(NC(=O)Nc4ccc(C(=O)N(C)C)cc4)cc3F)nc2c1 [Example 272, 4-(3-(3-fluoro-4-(7-(2-methylpyridin-3-yl)-4-morpholino-quinazolin-2-yl)phenyl)ureido)-N,N-dimethyl-benzamide]
6 | < 50 |  | < 50 | CN(C)C(=O)c1ccc(NC(=O)Nc2ccc(-c3nc(N4CCOCC4)c4ccc(-c5cnc(N(C)C)nc5)cc4n3)c(F)c2)cc1 [Example 277, 4-(3-(4-(7-(2-(dimethylamino)pyrimidin-5-yl)-4-morpholino-quinazolin-2-yl)-3-fluorophenyl)ureido)-N,N-dimethyl-benzamide]
7 | < 50 |  | < 50 | CN(C)C(=O)c1ccc(NC(=O)Nc2ccc(-c3nc(N4CCOCC4)c4ccc(-c5ccc(CO)o5)cc4n3)cc2)cc1F [Example 278, 2-fluoro-4-(3-(4-(7-(5-(hydroxymethyl)furan-2-yl)-4-morpholino-quinazolin-2-yl)phenyl)ureido)-N,N-dimethyl-benzamide]
8 | < 50 |  | < 50 | CC(=O)Nc1ccc(NC(=O)Nc2ccc(-c3nc(N4CCOCC4)c4ncc(-c5cccnc5F)cc4n3)cc2)cc1 [Example 293, N-(4-(3-(4-(7-(2-fluoropyridin-3-yl)-4-morpholinopyrido[3,2-d]pyrimidin-2-yl)phenyl)ureido)phenyl) acetamide]

Second part, the molecule before the results:

Row | SMILES | IC50 [1] [nM] | IC50 (PC3 cells) [nM] | IC50 (mTOR kinase) [nM]
9 | Cc1ccc(-c2ccc3c(N4CCOCC4)nc(-c4ccc(NC(=O)Nc5ccc(C(=O)N6CCC(N(C)C)C6)cc5)cc4)nc3c2)o1 (stereo in doubt) [Example 195, (S)-1-(4-(3-(dimethylamino)pyrrolidine-1-carbonyl)phenyl)-3-(4-(7-(5-methylfuran-2-yl)-4-morpholino-quinazolin-2-yl)phenyl)urea] | 50 to 200 | < 100 | < 50
10 | NC1CCN(C(=O)c2ccc(NC(=O)Nc3ccc(-c4nc(N5CCOCC5)c5ccc(-c6ccco6)cc5n4)cc3)cc2)C1 (stereo in doubt) [Example 234, (S)-1-(4-(3-aminopyrrolidine-1-carbonyl)phenyl)-3-(4-(7-(furan-2-yl)-4-morpholino-quinazolin-2-yl)phenyl)urea] | < 50 | 201 to 10000 | < 50
11 | CN1CCN(C(=O)c2ccc(NC(=O)Nc3ccc(-c4nc(N5CCOCC5)c5cc(F)c(-c6cccnc6)cc5n4)cc3)cc2)CC1 [Example 4, 1-[4(6-Fluoro-4-morpholin-4-yl-7-pyridin-3-yl-quinazolin-2-yl)-phenyl]-3-[4-(4-methyl-piperazine-1-carbonyl)-phenyl]-urea] | < 50 | < 100 | < 50
12 | CN(C)C(=O)c1ccc(NC(=O)Nc2ccc(-c3nc(N4CCOCC4)c4ncc(-c5cnn(C)c5)cc4n3)cc2)cc1F [Example 273, 2-fluoro-N,N-dimethyl-4-(3-(4-(7-(1-methyl-1H-pyrazol-4-yl)-4-morpholino-pyrido[3,2-d]pyrimidin-2-yl)phenyl)ureido)-benzamide] | < 50 |  | < 50
13 | CN(C)C(=O)c1ccc(NC(=O)Nc2ccc(-c3nc(N4CCOCC4)c4ccc(-c5ccc(C(C)(C)O)o5)cc4n3)c(F)c2)cc1 [Example 276, 4-(3-(3-fluoro-4-(7-(5-(2-hydroxypropan-2-yl)furan-2-yl)-4-morpholino-quinazolin-2-yl)phenyl)ureido)-N,N-dimethyl-benzamide] | 50 to 200 |  | 50 to 200
14 | CN(C)C(=O)c1ccc(NC(=O)Nc2cc(F)c(-c3nc(N4CCOCC4)c4ccc(-c5cncnc5)cc4n3)cc2F)cc1 [Example 279, 4-(3-(2,5-difluoro-4-(4-morpholino-7-(pyrimidin-5-yl)quinazolin-2-yl)phenyl)ureido)-N,N-dimethyl-benzamide] | 50 to 200 |  | 50 to 200
15 | Cc1ccc(-c2ccc3c(N4CCOCC4)nc(-c4ccc(NC(=O)Nc5ccc(C(=O)N(C)C)cc5)c(F)c4F)nc3c2)o1 [Example 281, 4-(3-(2,3-difluoro-4-(7-(5-methylfuran-2-yl)-4-morpholino-quinazolin-2-yl)phenyl)ureido)-N,N-dimethyl-benzamide] | 201 to 10000 |  | 201 to 10000
16 | CN(C)C(=O)c1ccc(NC(=O)Nc2ccc(-c3nc(N4CCOCC4)c4ccc(CN5CCC(O)CC5)cc4n3)cc2)cc1 [Example 284, 4-(3-(4-(7-((4-hydroxypiperidin-1-yl)methyl)-4-morpholino-quinazolin-2-yl)phenyl)ureido)-N,N-dimethyl-benzamide] | 201 to 10000 |  | 50 to 200
17 | CN(C)C(=O)c1ccc(NC(=O)Nc2ccc(-c3nc(N4CCOCC4)c4ccc(C(=O)N5CCC(N(C)C)CC5)cc4n3)cc2)cc1 [Example 287, 4-(3-(4-(7-(4-(dimethylamino)piperidine-1-carbonyl)-4-morpholino-quinazolin-2-yl)phenyl)ureido)-N,N-dimethyl-benzamide] | 201 to 10000 |  | 201 to 10000
18 | CN(C)[C@@H]1CCN(C(=O)c2ccc(NC(=O)Nc3ccc(-c4nc(N5CCOCC5)c5ccc(C(C)(C)O)cc5n4)cc3)cc2)C1 [Example 288, (R)-1-(4-(3-(dimethylamino)pyrrolidine-1-carbonyl)phenyl)-3-(4-(7-(2-hydroxypropan-2-yl)-4-morpholino-quinazolin-2-yl)phenyl)urea] | 50 to 200 |  | < 50
19 | CN(C)C(=O)c1ccc(NC(=O)Nc2ccc(-c3nc(N4CCOCC4)c4ccc(C(C)(C)O)cc4n3)cc2F)cc1 [Example 290, 4-(3-(2-fluoro-4-(7-(2-hydroxypropan-2-yl)-4-morpholino-quinazolin-2-yl)phenyl)ureido)-N,N-dimethyl-benzamide] | 50 to 200 |  | < 50
20 | CC(=O)Nc1ccc(NC(=O)Nc2ccc(-c3nc(N4CCOCC4)c4ncc(-c5cnn(C)c5)cc4n3)cc2)cc1 [Example 294, N-(4-(3-(4-(7-(1-methyl-1H-pyrazol-4-yl)-4-morpholinopyrido[3,2-d]pyrimidin-2-yl)phenyl)ureido)phenyl) acetamide] | < 50 |  | < 50
